Data on 22 compounds can be found in patent US7834013B2, “Aminophenylcyclopropyl carboxylic acids and derivatives as agonists to GPR40” (GlaxoSmithKline LLC, priority 2003, dated 2010).

Structures can show the parent of a compound that is named as a salt.

The target in this experiment is T1, GPR40 (Homo sapiens, UniProt O14842).
T1 construct: expressed in transfected cells
T1 sequence (O14842 whole entry): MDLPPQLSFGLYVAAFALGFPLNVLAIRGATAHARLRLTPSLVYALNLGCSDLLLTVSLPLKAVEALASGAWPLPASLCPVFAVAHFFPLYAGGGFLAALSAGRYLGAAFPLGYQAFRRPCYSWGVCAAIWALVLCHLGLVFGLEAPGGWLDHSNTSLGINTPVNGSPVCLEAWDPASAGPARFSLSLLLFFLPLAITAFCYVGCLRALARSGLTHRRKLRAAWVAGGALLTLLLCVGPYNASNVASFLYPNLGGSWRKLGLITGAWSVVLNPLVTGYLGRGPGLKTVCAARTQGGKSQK
In words: GPR40 SAR Primary Assay (Elk-1/Gal4-luc+ reporter, luciferase activity). Type of experiment: cell-based. Particulars: stable GPR40 Elk-1/Gal4-luc+ CHO cell line, 5 hours incubation. Here is the method: An existing stable GPR40 Elk-1/Gal4-luc^+ CHO cell line generated by electroporation and functional cloning was used. Cells were maintained in a humidified incubator at 37° C./5% CO2 in complete media containing DMEM/F12 (Gibco, #11039-021), 5% FBS (Gibco, #16140-071) and 1% Glutamine (Gibco, #25030-081). Cell maintenance passages were made at 1:40 dilution every 3-4 days. Forty eight hours prior to assay, 15e6 cells were added to 200 ml of complete media then seeded into a 1200 cm^2-cell factory and returned to a humidified incubator at 37° C./5% CO2. 20 hours prior to assay, the growth media was removed and replaced with 200 ml of serum-free DMEM/F12 to quiesce background activity. At the time of assay, cells were harvested using non-enzymatic cell dissociation solution (Sigma, #C-5914), washed and counted. The 20 hour starve media was collected and used as condition media for cell assay plating. Cells were plated at a concentration of 10,000 cells/well in a total well volume of […] in black 96-well clear bottom polystyrene plates (CoStar, #3904). Test compounds were prepared as serial dilutions in 100% DMSO, then 1 ul was delivered to each well resulting in a final concentration of 1% DMSO. The plates were then returned to a humidified incubator at 37° C./5% CO2 for 5 hours. Following the incubation, the medium was replaced with 50 ul of a 1:1 mixture of SteadyGlo™ (Promega, #E2550) and dPBS containing 1 mM CaCl2 and 1 mM MgCl2. Plates were then sealed and subjected to dark adaptation at room temperature for 10 minutes. Luciferase activity was measured on a Packard TopCount™ microplate scintillation counter using 2 seconds per well count time.
Data analysis was performed using standard methods.
The Normalization Equation used was 100*(Unknown compound response−Background response)/(Agonist Max response−Background response).
The Curve Fit Function used was y=((Vmax*x^n)/(K^n+x^n))+Y2.
A percent max response and pEC50 were recorded for each compound. Although specific pEC50 values are given, these values should be considered exemplary. Those skilled in the art will appreciate the variability in performing and recording the biological activity assays that are herein described. The compounds of the present invention provide a pEC50 of at least 5.0.
For the compound `O=C(O)C1CC1c1ccc(NCc2cccc(Oc3ccccc3)c2)cc1` (single isomer, unassigned; (+)) [Example 26, (+)-(Trans)-2-{4-[(3-phenoxybenzyl)amino]phenyl}cyclopropanecarboxylic Acid], it took 3.98 nM to reach a half-maximal effect (EC50). With `O=C(O)[C@H]1C[C@@H]1c1ccc(NCc2cccc(Oc3cccc(C(F)(F)F)c3)c2)cc1` [Example 33, (+)-(trans)-2-(4-{[(3-{[3-(trifluoromethyl)phenyl]oxy}phenyl)methyl]amino}phenyl)cyclopropanecarboxy lic Acid] the figure was 25.1 nM; with `O=C(O)[C@@H]1C[C@H]1c1ccc(NCc2ccc(-c3ccccn3)cc2)cc1` (racemic) [Example 3, Racemic-(trans)-2-[4-({[4-(2-pyridinyl)phenyl]methyl}amino)phenyl]cyclopropanecarboxylic Acid], 1580 nM; with `O=C(O)C1CC1c1cc(F)c(NCc2cccc(Oc3ccccc3)c2)cc1F` (single isomer, unassigned; (+)) [Example 31a, (+)-(trans)-2-[2,5-difluoro-4-({[3-(phenyloxy)phenyl]methyl}amino)phenyl]cyclopropanecarboxylic Acid], 501 nM. With `CC(C)NC(=O)C1CC1c1ccc(NCc2cccc(Oc3ccccc3)c2)cc1` (single isomer, unassigned; (+)) [Example 44, (+)-(trans)-N-(1-methylethyl)-2-[4-({[3-(phenyloxy)phenyl]methyl}amino)phenyl]cyclopropanecarboxamide] the figure was 10 nM. For the compound `O=C(NCc1ccncc1)[C@@H]1C[C@H]1c1ccc(NCc2cccc(Oc3ccccc3)c2)cc1` (racemic) [Example 47, Racemic-(trans)-2-[4-({[3-(phenyloxy)phenyl]methyl}amino)phenyl]-N-(4-pyridinylmethyl)cyclopropanecarboxamide], the EC50 (commonly the concentration that produces a half-maximal response) was 10 nM. For `O=C(O)C1CC1c1ccc(NCc2cccc(Oc3cccc(C(F)(F)F)c3)c2)cc1` (racemic) [Example 9, Racemic-(trans)-2-(4-{[(3-{[3-(trifluoromethyl)phenyl]oxy}phenyl)methyl]ammonium}-phenyl)cyclopropanecarboxylic Acid Trifluoroacetate], the response was half-maximal at 7.94 nM (EC50). As for `O=C(O)C1CC1c1ccc(NCc2cccc(Oc3ccccc3)c2)cc1Cl` (single isomer, unassigned; (+)) [Example 30a, (+)-(Trans)-2-[2-chloro-4-({[3-(phenyloxy)phenyl]methyl}amino)phenyl]cyclopropanecarboxylic Acid], the figure is 398 nM; as for `O=C(O)[C@@H]1C[C@H]1c1ccc(NCc2ccc(-c3ccc(C(F)(F)F)cc3)s2)cc1` (racemic) [Example 19, Racemic-(trans)-2-{4-[({5-[4-(trifluoromethyl)phenyl]-2-thienyl}methyl)amino]phenyl}cyclopropanecarboxylic Acid Trifluoroacetate], 63.1 nM. As for `Cc1nc(-c2ccc(C(F)(F)F)cc2)sc1CNc1ccc(C2CC2C(=O)NC(C)C)cc1` (stereo not drawn) [Example 53, Enantiomerically Enriched N-isopropyl-2-{4-[({4-methyl-2-[4-(trifluoromethyl)phenyl]-1,3-thiazol-5-yl}methyl)amino]phenyl}cyclopropanecarboxamide], the figure is 10 nM. As for `NC(=O)C1CC1c1ccc(NCc2ccc(-c3ccccc3)cc2)cc1` (racemic) [Example 35, Racemic-(trans)-2-{4-[(4-biphenylmethyl)amino]phenyl}cyclopropanecarboxamide], the figure is 20 nM; as for `Cc1nc(Oc2ccccc2)sc1CNc1ccc(C2CC2C(=O)O)cc1` (racemic) [Example 12, Racemic-(trans)-2-[4-({[4-methyl-2-(phenyloxy)-1,3-thiazol-5-yl]methyl}ammonium)-phenyl]cyclopropanecarboxylic Acid Trifluoroacetate], 398 nM. The compound `Cc1nc(-c2ccc(C(F)(F)F)cc2)sc1CNc1ccc([C@@H]2C[C@H]2C(=O)NC(C)C)cc1` (racemic) [Example 45, Racemic-(trans)-N-isopropyl-2-{4-[({4-methyl-2-[4-(trifluoromethyl)phenyl]-1,3-thiazol-5-yl}methyl)amino]phenyl}cyclopropanecarboxamide] showed an EC50 of 10 nM. `Cc1ccc(Oc2cccc(CNc3ccc(C4CC4C(=O)O)cc3)c2)cc1` (racemic) [Example 10, Racemic-(trans)-2-{4-[({3-[(4-methylphenyl)oxy]phenyl}methyl)ammonium]phenyl}-cyclopropanecarboxylic Acid Trifluoroacetate]: the EC50 was 10 nM. With `Cc1nc(Oc2ccc(F)c(F)c2)sc1CNc1ccc([C@@H]2C[C@H]2C(=O)O)cc1` (racemic) [Example 17, Racemic-(trans)-2-{4-[({2-[(3,4-difluorophenyl)oxy]-4-methyl-1,3-thiazol-5-yl}methyl)amino]phenyl}cyclopropanecarboxylic Acid] the figure was 251 nM; with `O=C(NCCN1CCOCC1)[C@@H]1C[C@H]1c1ccc(NCc2cccc(Oc3ccccc3)c2)cc1` (racemic) [Example 50, Racemic-(trans)-N-(2-morpholin-4-ylethyl)-2-{4-[(3-phenoxybenzyl)amino]phenyl}cyclopropanecarboxamide], 251 nM; with `Cc1nc(-c2ccc(C(F)(F)F)cc2)sc1CNc1ccc([C@@H]2C[C@H]2C(N)=O)cc1` (single isomer, unassigned) [Example 39, Enantiomerically Enriched (trans)-2-{4-[({4-methyl-2-[4-(trifluoromethyl)phenyl]-1,3-thiazol-5-yl}methyl)amino]phenyl}cyclopropanecarboxamide], 10 nM. As for `COc1ccc(Oc2cccc(CNc3ccc(C4CC4C(=O)O)cc3)c2)cc1` (racemic) [Example 5, Racemic-(trans)-2-(4-{[(3-{[4-(methyloxy)phenyl]oxy}phenyl)methyl]ammonium}phenyl)-cyclopropanecarboxylic Acid Trifluoroacetate], the figure is 20 nM. As for `O=C(O)[C@H]1C[C@@H]1c1ccc(NCc2cccc(Cc3ccccc3)c2)cc1` (racemic) [Example 21, Racemic-(trans)-2-[4-({[3-(phenylmethyl)phenyl]methyl}amino)phenyl]cyclopropanecarboxylic Acid Trifluoroacetate], the figure is 25.1 nM; as for `O=C(O)[C@@H]1C[C@H]1c1ccc(NCc2ccc(-c3ccc(Cl)cc3)o2)cc1` (racemic) [Example 15, Racemic-(trans)-2-[4-({[5-(4-chlorophenyl)-2-furanyl]methyl}amino)phenyl]cyclopropanecarboxylic Acid], 126 nM. Compound `CC(C)(C)c1ccc(Oc2cccc(CNc3ccc(C4CC4C(=O)O)cc3)c2)cc1` (racemic) [Example 7, Racemic-(trans)-2-(4-{[(3-{[4-(1,1-dimethylethyl)phenyl]oxy}phenyl)methyl]ammonium}phenyl)cyclopropanecarboxylic Acid Trifluoroacetate] showed an EC50 of 20 nM. With `O=C(O)C1CC1c1ccc(NCc2cccc(Oc3ccccc3)c2)cc1` (racemic) [Example 1, Racemic-(trans)-2-[4-({[3-(phenyloxy)phenyl]methyl}ammonium)phenyl]cyclopropanecarboxylic Acid Trifluoroacetate] the figure was 12.6 nM.
